Values joined by “and” are separate entries in the source; they are usually repeats but may differ in a detail not shown here. Equal entries are not always repeated.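 Values below derive from 48-hour exposures of cells grown in 96-well plates, with endpoints linearly interpolated between the two concentrations bracketing the appropriate inhibition level. At the GI50, growth is halved. TGI denotes the concentration required for complete inhibition of growth.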
Legend:
Assay in all cases: inhibition of tumour cell growth, NCI panel, 48 h
A549 NSCLC = test system: A549 NSCLC
HOP-62 NSCLC = test system: HOP-62 NSCLC
HT29 colon = test system: HT29 colon
NCI-H522 lung = test system: NCI-H522 lung
SF-539 CNS = test system: SF-539 CNS
SK-MEL-5 melanoma = test system: SK-MEL-5 melanoma
SN12C renal = test system: SN12C renal
UACC-257 melanoma = test system: UACC-257 melanoma
UO-31 renal = test system: UO-31 renal
SR leukemia = test system: SR leukemia

Row | Structure (SMILES) | TGI (A549 NSCLC) | TGI (HOP-62 NSCLC) | TGI (HT29 colon) | TGI (NCI-H522 lung) | TGI (SF-539 CNS) | TGI (SK-MEL-5 melanoma) | TGI (SN12C renal) | TGI (UACC-257 melanoma) | TGI (UO-31 renal) | GI50 (NCI-H522 lung) | GI50 (SR leukemia) | TGI (SR leukemia) | GI50 (SF-539 CNS) | GI50 (SK-MEL-5 melanoma) | GI50 (UACC-257 melanoma) | GI50 (UO-31 renal) | GI50 (A549 NSCLC) | GI50 (HOP-62 NSCLC) | GI50 (HT29 colon) | GI50 (SN12C renal)
1 | Cc1nc(-c2cccnc2)sc1C(=O)/C=C/c1ccc(Cl)cc1Cl | > 100 µM | > 100 µM | > 100 µM | > 100 µM | > 100 µM | > 100 µM | > 100 µM | > 100 µM | > 100 µM |  |  |  |  |  |  |  |  |  |  | 
2 | Cc1c2cc[n+](C)cc2c(C)c2c1[nH]c1ccc(Oc3ccccc3)cc12 | > 100 µM | 38 µM and 26.3 µM | 21.2 µM and 29 µM | 12.1 µM and 8.56 µM | 20.2 µM and 21 µM |  | > 100 µM | 6.96 µM and 8.42 µM | 40 µM and > 38.1 µM | 2.41 µM and 0.743 µM | 4.39 µM and 1.87 µM | > 71.9 µM and 8.31 µM |  |  |  |  |  |  |  | 
3 | COc1ccc(C[C@H](N)C(=O)N[C@@H]2[C@@H](CO)OC(n3cnc4c(N(C)C)ncnc43)[C@@H]2O)cc1 (stereo partly specified) |  | 1.1 µM | 1.38 µM | 0.493 µM | 1.95 µM | 0.914 µM | 1.31 µM | 1.08 µM | 6.57 µM | 0.126 µM | 0.17 µM | 1.32 µM | 0.435 µM | 0.287 µM | 0.321 µM | 1.56 µM |  |  |  | 
4 | CC1CC2C(=O)N(c3ccccc3)C(=O)C2c2[nH]c3ccccc3c21 (stereo unspecified) | > 100 µM |  | > 100 µM |  | > 100 µM | > 100 µM | > 100 µM |  |  |  |  | > 100 µM |  |  |  |  |  |  |  | 
5 | O=C(Nc1cccc(C(F)(F)F)c1)Nc1ccc(OCc2nnc(-c3ccccc3)o2)c(F)c1 | 38.5 µM | 18 µM | 58.5 µM |  | 23.2 µM | 21.3 µM | 46.1 µM | 37.9 µM | 21 µM |  | 2.23 µM | 9.65 µM | 5.1 µM | 5.71 µM | 6.38 µM | 3.11 µM | 6.02 µM | 3.4 µM | 5.08 µM | 9.36 µM
6 | Cc1ccc(S(=O)(=O)NCc2cccc([N+](=O)[O-])c2)cc1 | > 100 µM | > 100 µM | > 100 µM | > 100 µM | > 100 µM | > 100 µM | > 100 µM | > 100 µM |  |  |  | > 100 µM |  |  |  |  |  |  |  | 
7 | CN(C)C(=O)c1cc2cnc(Nc3ccc(N4CCNCC4)cn3)nc2n1C1CCCC1 | 41.6 µM | 58.5 µM | > 100 µM |  | 30.8 µM | 24.5 µM | 93.6 µM | 33.4 µM | 62.1 µM |  | 3.21 µM | 38.7 µM | 15.7 µM | 11.6 µM | 15.7 µM | 4.56 µM | 12 µM | 2.09 µM | 3.28 µM | 13.9 µM
8 | O=C(Nc1ccccc1)Oc1ccccc1C1CCCCC1 | 88.5 µM | 59.6 µM | 51.6 µM |  | > 100 µM | 26.9 µM | 41.1 µM | 40.2 µM | 74.3 µM |  |  | 55.7 µM |  |  |  |  |  |  |  | 
9 | CCCCc1c2c(nc3c1CC/C(=C\c1ccccc1)C3=O)CCCC2 | 28 µM | 16.5 µM | 4.75 µM | 6.37 µM | 4.71 µM |  | 10.9 µM | 18.3 µM | 19.1 µM |  |  | 11.5 µM |  |  |  |  |  |  |  | 
10 | O=C(O)C12C3C4C1C1C2C3C41I (stereo unspecified) | > 100 µM | > 100 µM | > 100 µM | > 100 µM | > 100 µM | > 100 µM | > 100 µM | > 100 µM | > 100 µM |  |  |  |  |  |  |  |  |  |  | 
11 | CCNC(=O)O/N=C1/C=C2CC[C@@H]3C(CC[C@@]4(C)C3CC[C@@H]4OC(=O)NCC)[C@@]2(C)CC1 (stereo partly specified) | 14.2 µM | > 100 µM | 10.3 µM | 4.77 µM | > 100 µM | > 100 µM | 14.6 µM | 11.1 µM | 3.46 µM |  |  |  |  |  |  |  |  |  |  | 
12 | CC(=O)OCC1OC(OC(C)=O)C(NC#N)C(OC(C)=O)C1OC(C)=O (stereo unspecified) | > 100 µM | > 100 µM | > 100 µM | > 100 µM | > 100 µM | > 100 µM | > 100 µM |  | > 100 µM |  |  | > 100 µM |  |  |  |  |  |  |  | 
13 | CCOC(=O)NC/C=C/CO | > 100 µM | > 100 µM |  | > 100 µM | > 100 µM | > 100 µM | > 100 µM | > 100 µM | > 100 µM |  |  | > 100 µM |  |  |  |  |  |  |  | 
14 | COc1cccc(OC)c1/C=N\N1C(=O)c2ccccc2C1=O | > 100 µM | > 100 µM | > 100 µM |  | 52.4 µM | > 100 µM | > 100 µM | > 100 µM | > 100 µM |  |  | 74.5 µM |  |  |  |  |  |  |  | 
15 | COc1cccc2c(Nc3ccc(C(=O)NCCN4CCNCC4)cc3)cc(-c3ccccc3)nc12 | > 100 µM | > 100 µM | > 100 µM | 30.5 µM | 57 µM | > 100 µM | > 100 µM | > 100 µM | > 100 µM | 15.8 µM |  |  | 22.9 µM | 31 µM | > 100 µM | 49.4 µM | > 100 µM | > 100 µM | 20.7 µM | 50.7 µM
16 | COc1ccc(Cl)cc1Nc1nc(C(F)(F)F)ccc1C(=O)N/N=C/c1ccc(Cl)cc1 | > 100 µM | 24 µM | > 100 µM | 42.5 µM | 27.5 µM | 23.5 µM | > 100 µM | > 100 µM | > 100 µM | 4.16 µM |  |  | 6.63 µM | 2.23 µM | 7.91 µM | 1.03 µM | 37.7 µM | 3.51 µM | 7.4 µM | 8.67 µM
17 | COC(=O)CCSC(=O)Nc1ccccc1Cl | > 100 µM | > 100 µM | > 100 µM | 28.1 µM | > 100 µM |  | > 100 µM | > 100 µM | > 100 µM |  |  | > 100 µM |  |  |  |  |  |  |  | 
18 | CN1OC(CO)CC12C1CC3CC(C1)CC2C3 (stereo unspecified) | > 100 µM | > 100 µM | > 100 µM | > 100 µM | > 100 µM | > 100 µM | > 100 µM |  | > 100 µM |  |  | > 100 µM |  |  |  |  |  |  |  | 
19 | COc1cc(-c2nn(-c3cccc(NC(=O)c4cccc(C(F)(F)F)c4)c3)cc2-c2ccncc2)ccc1Cl | > 50 µM |  | 20.1 µM | 3.85 µM | 2.3 µM | 2.47 µM | > 50 µM | > 50 µM | > 50 µM | 1.05 µM | 0.838 µM | 4.59 µM | 0.895 µM | 0.978 µM | 27.9 µM | 0.969 µM | 1.87 µM |  | 1.39 µM | 3.31 µM
